# Patent publication US20040001834A1, “Phospholipase A2 enzyme, antibodies and inhibitors thereto” (priority 2002, published 2004)
# Entries after “also recorded” stand apart in the source; their conditions may differ.
# Key:
# rPLA2 = rPLA2 enzyme activity assay with 2-[1-14C]AA-GPC substrate in the presence of inhibitors or divalent metal ions; format: biochemical, bovine; conditions: for inhibition of rPLA2 activity: substrate 2-[1-14C]AA-GPC, 10 min; for effect on rPLA2 activity compared with cPLA2: comparison rPLA2 versus cPLA2
# Experimental: To verify the effect of known inhibitors on the activity of rPLA2, the various concentrations of inhibitors, i.e., DTT (dithiothtreitol), AACOCF3 (arachidonylfluoromethyl ketone) known as the cPLA2 inhibitor, mepacrine and methyl mercury, mercuric chloride known as the sPLA2 inhibitors were added to active pool from Mono Q column and reacted 2-[1-^14C]-AA-GPC as a substrate for 10 min. The comparative groups, cPLA2 and sPLA2, were subjected to in a same procedure.
# To verify the effect of divalent metal ions on enzyme activity, to rPLA2 activity, various concentrations of divalent metal i.e., Zn^2+, Fe^2+, Cu^2+, Sr^2+, Ba^2+, Mn^2+ and Mg^2+ were added to active pool from Mono Q column and reacted 2-[1-^14C]-AA-GPC as a substrate for further 10 min. The comparative groups, cPLA2 and sPLA2, were subjected to in a same procedure.
# To measure the functions of rPLA2 using inventive antibody, the supernatant obtained from above procedure was adopted to analyze the activity. PLA2 activity was measured in an assay system (100 μl) of 75 mM Tris-HCl (pH 7.5) containing […] of 2-[1-^14C]AA-GPC (110,000 cpm/4.5 nmol) mixed with 2-[1-^14C]AA-GPC, 4% glycerol, 5 mM CaCl2 and 0.2 % BSA.
# Prepared rPLA2 and cPLA2 and each inhibitor dissolved in 5 μl of DMSO solution was added and reacted for 10 min at 37° C. maintaining the temperature. 2-[1-^14C]AA-PC as a substrate was added and reacted for 10 min at 37° C. maintaining the temperature.
# To verify the mechanism of inhibition, Dixon plot was constructed (FIG. 31).
# bovine RBCs = assay: [3H]AA release from labeled bovine RBCs; format: cell-based; conditions: for inhibition of AA release by A23187 in bovine RBC: 50 μM of EA4, 20 min, then 2 μM A23187, 37 °C
# Experimental: (§1) Human venous blood was collected in heparin (40 unit/ml) from some healthy volunteers among the Korean graduate students in our laboratory and bovine blood freshly collected in heparin (40 unit/ml) in a local slaughterhouse. After blood was centrifuged at 500×g for 20 min, the resulting supernatants of the platelet-rich plasma, the buffy coat and the leading edge of the packed RBCs were completely removed by aspiration. Sedimented RBCs, leukocytes, and platelets were re-suspended in a sterile buffer (50 mM Tris-HCl, pH 7.5, 1 mM EDTA, 0.12 M NaCl). This centrifugation and aspiration cycle was repeated six times taking care of removing leukocytes and platelets and the top 10% of the RBCs suspensions. Washed cell suspensions (10 ml) were subsequently depleted of residual leukocytes and platelets by filtration through a Sepharose 4B-200 column (20×2.5 cm) pre-equilibrated with sterile saline (0.9% w/v NaCl) as described above.
# (§2) The Sepharose 4B-200 column-purified RBCs suspensions (approximately 1×10^9 cells/ml) were twice washed with serum-free MEM containing 1 mg/ml of fatty acid-free bovine serum albumin (BSA) and labeled for 1 hr with 1.5 mCi [^3H]AA (1 mCi/0.1 ml ethanol)/ml of the same medium. Murine L929 cells (1-2×10^6 cells/ml) were labeled for 6 hrs with 1.5 mCi [^3H]AA (1 mCi/0.1 ml ethanol)/ml of the same medium. Thereafter, cells were washed three times to remove all unincorporated [^3H]AA. […]
# (§3) For analysis of [^3H] AA release, at each time of 0, 10, 30, 60 and 90 min after reaction between the cell and A23187, the RBCs were centrifuged as above, and each aliquot (200 μl) of the supernatants for the RBCs and each aliquot (100 μl ) of the conditioned media for the L929 cells was transferred to 2.5 ml of the scintillation counting solution and counted for radioactivity with a Packard Tri-carb liquid β-scintillation counter (Packard Instrument Co., Meriden, Conn.). […]
# (§4) Cells were collected and centrifuged at the interval of 10 min. And the radioactivity was measured by scintillation counter.
# human RBCs = assay: [3H]AA release from labeled human RBCs; format: cell-based; conditions: for inhibition of AA release by A23187 in human RBC: 50 μM of EA4, 20 min, then 2 μM A23187, 37 °C
# Experimental: as §1, §2, §3, §4
# L929 cells = assay: [3H]AA release from labeled L929 cells; format: cell-based, murine; conditions: 50 μM of EA4, 20 min, then 2 μM A23187, 37 °C
# Experimental: The Sepharose 4B-200 column-purified RBCs suspensions (approximately 1×10^9 cells/ml) were twice washed with serum-free MEM containing 1 mg/ml of fatty acid-free bovine serum albumin (BSA) and labeled for 1 hr with 1.5 mCi [^3H]AA (1 mCi/0.1 ml ethanol)/ml of the same medium. Murine L929 cells (1-2×10^6 cells/ml) were labeled for 6 hrs with 1.5 mCi [^3H]AA (1 mCi/0.1 ml ethanol)/ml of the same medium. Thereafter, cells were washed three times to remove all unincorporated [^3H]AA. The labeled cells were incubated in MEM containing 1 mg/ml BSA as a trap for the released [^3H]AA and then stimulated with vehicle (0.1 μl ethanol/ml medium) or 2 μM of calcium ionophore A23187 at 37° C. And a control group is treated with vehicle only without A23187 compound.
# as §3, §4
# cPLA2 = cPLA2 enzyme activity assay with inhibitors (comparative group); format: biochemical, porcine; conditions: substrate 2-[1-14C]AA-PC, 10 min, 37° C.
# Source text: Stearoyl-2-[1-^14C]arachidonyl-sn-glycerol-3-phosphocholine (2-[1-^14C]AA-GPC) (55.3 mCi/mmol), 1-palmitoyl-2-[1-^14C]palmitoyl-sn-glycerol-3-phosphocholine (2-[1-^14C]PA-GPC) (55.6 mCi/mmol), 1-palmitoyl-2-[1-^14C]linoleoyl-sn-glycerol-3-phosphocholine (2-[1-^14C]LA-GPC) (55.9 mCi/mmol), 1-acyl-2-[1-^14C]arachidonyl-sn-glycerol-3-phosphoethanolamine (2-[1-^14C]AA-GPE) (55.1 mCi/mmol) and [^3H]arachidonic acid (AA) (204 Ci/mmol) ([^3H]AA) were purchased from the radio-chemical center, Amersham Life Science Ltd. (Buckinghamshire, UK). 1-Stearoyl-2-arachidonyl-sn-glycerol-3-phosphocholine (2-AA-GPC), dithiothreitol (DTT), A23187, 3,3′-diaminobenzidine (DAB), methylcellulose, erythropoietin and Sepharose 4B-200 gel filtration column were purchased from Sigma Co. (St. Louis, Mo.). Anti-human secretory 14 kDa sPLA2 antibody was purchased from Upstate Biotechnology, Inc. (Lake Placid, N.Y.). Goat anti-rabbit- and anti-mouse-alkaline phosphatase conjugates were purchased from Santa Cruz Biotechnology Inc., Santa Cruz, Calif. Group IV cytosolic PLA2 (cPLA2) was purified from porcine spleen and anti-cPLA2 polyclonal antibody was generated as described above(Kim, D. K., and Bonventure, J. V., Biochem. J., 294, 261-270, 1993). Group II secretory PLA2 (sPLA2) was partially purified from bovine platelets as described above (Hara, S et al., J. biochem., 105, 395-399, 1989). […]
# [1] = 2 μM A23187, 37° C., 0-90 min, time-dependent
compound,measurement,setting,value
"O[C@H](CS)[C@H](O)CS (racemic) [DTT, dithiothreitol, reference compound]",inhibition of rPLA2 activity,rPLA2,not inhibited
"CNc1ccc2oc(C[C@H]3O[C@@]4(CC[C@H]3C)O[C@H]([C@H](C)C(=O)c3ccc[nH]3)[C@H](C)C[C@H]4C)nc2c1C(=O)O [A23187, reference compound]",release of [3H]AA from bovine RBCs,bovine RBCs; [1],released
same,release of [3H]AA from human RBCs,human RBCs; [1],released
[Ba+2] [Ba^2+],activation of rPLA2 activity by divalent metal cation,rPLA2,activated
[Cu+2] [Cu^2+],activation of rPLA2 activity by divalent metal cation,rPLA2,activated
"CCN(CC)c1ccc(C2=C(Cl)C(=O)c3ncccc3C2=O)cc1 [EA4, 7-chloro-6-[4-(diethylamine)phenyl]-5,8-quinolinedione]",inhibition of AA release in L929 cells,L929 cells,inhibited
same,inhibition of cPLA2 activity,cPLA2,inhibited; also recorded: inhibits the activity of cPLA2
same,inhibitory pattern on rPLA2,rPLA2; Dixon plot,competitive; also recorded: competitively
same,Ki,"rPLA2; Dixon plot, competitive inhibition, read-out: inhibition constant (Ki) for rPLA2",130 µM
same,inhibition of rPLA2 activity,rPLA2,inhibited
same,inhibition of AA release by A23187 in bovine RBC,bovine RBCs,significantly inhibited; also recorded: inhibits the release
same,inhibition of AA release by A23187 in human RBC,human RBCs,significantly inhibited
[Fe+2] [Fe^2+],activation of rPLA2 activity by divalent metal cation,rPLA2,activated
[Mg+2] [Mg^2+],activation of rPLA2 activity by divalent metal cation,rPLA2,activated
[Mn+2] [Mn^2+],activation of rPLA2 activity by divalent metal cation,rPLA2,activated
[Sr+2] [Sr^2+],activation of rPLA2 activity by divalent metal cation,rPLA2,activated
"CC(C)(C)c1cc(C2=C(Cl)C(=O)c3ccccc3C2=O)cc(C(C)(C)C)c1O [TP1, 2-(3,5-Di-tert-butyl-4-hydroxyphenyl)-3-chloro-1,4-naphthalene dione, reference compound]",inhibition of AA release in L929 cells,L929 cells,inhibited
same,inhibition of cPLA2 activity,cPLA2,inhibited
same,inhibition of rPLA2 activity,rPLA2,inhibited that of cPLA2 only; also recorded: not inhibited
same,inhibition of AA release by A23187 in bovine RBC,bovine RBCs,not inhibited
same,inhibition of AA release by A23187 in human RBC,human RBCs,not inhibited
[Zn+2] [Zn^2+],activation of rPLA2 activity by divalent metal cation,rPLA2,activated
"CCN(CC)CCCC(C)Nc1c2ccc(Cl)cc2nc2ccc(OC)cc12 (stereo not drawn) [mepacrine, reference compound]",inhibition of rPLA2 activity,rPLA2,not inhibited
"[Cl][Hg][Cl] [mercuric chloride, reference compound]",effect on rPLA2 activity compared with cPLA2,rPLA2,different profile from cPLA2
same,inhibition of rPLA2 activity,rPLA2,not inhibited
"[CH3][Hg][Cl] [methyl mercury, reference compound]",effect on rPLA2 activity compared with cPLA2,rPLA2,less effective activity than cPLA2
same,inhibition of rPLA2 activity,rPLA2,not inhibited
